According to BindingDB's records for patent US9446044 (DIAXONHIT, 2016):

Target: Dual specificity tyrosine-phosphorylation-regulated kinase 1A (Homo sapiens, UniProt Q13627)
Assay: HotSpot Technology Assay
Settings: pH 7.5; 25 °C

SMILES	IC50 [nM]
COc1ccc(Nc2ncnc3ccc4nc(C(=N)N(C)C)sc4c23)cc1 [US9446044, 28]	500
NC(=O)c1nc2ccc3ncnc(Nc4ccc5c(c4)OCO5)c3c2s1 [US9446044, 39]	500
COC(=O)c1nc2ccc3ncnc(Nc4ccc5c(c4)OCO5)c3c2s1 [US9446044, 84]	500
